PMC5909127, “Optimization of a “bump-and-hole” approach to allele-selective BET bromodomain inhibition” (Chemical Science, 2018)

How the values were obtained:
[1] = molecular target: WT BET bromodomains (BD1 and BD2 of BRD2, BRD3 and BRD4); assay: competitive AlphaLISA (Bio-JQ1 displacement); format: binding, human; settings: mean and SD of all somatic bromodomains; active enantiomer concentration
[2] = system: L/V BET bromodomains (BD1 and BD2 of BRD2, BRD3 and BRD4); assay: competitive AlphaLISA (Bio-JQ1 displacement); format: binding, human; settings: for AlphaLISA pIC50 ± SD Δ: L/V minus WT; for AlphaLISA pIC50 ± SD L/V: mean and SD of all somatic bromodomains, active enantiomer concentration
BRD2 BD1 WT [3] = molecular target: T1, BRD2 BD1 WT (Homo sapiens, UniProt P25440); assay: competitive AlphaLISA; format: binding
T1 sequence (P25440 71-176): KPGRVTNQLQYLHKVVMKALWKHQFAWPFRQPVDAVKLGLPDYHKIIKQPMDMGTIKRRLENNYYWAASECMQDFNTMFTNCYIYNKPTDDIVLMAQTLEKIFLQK

BRD2 BD1 L/V [4] = molecular target: T2, BRD2 BD1 L/V (Homo sapiens, UniProt P25440, L110V); assay: competitive AlphaLISA; format: binding
T2 sequence (P25440 71-176 L110V limits assumed): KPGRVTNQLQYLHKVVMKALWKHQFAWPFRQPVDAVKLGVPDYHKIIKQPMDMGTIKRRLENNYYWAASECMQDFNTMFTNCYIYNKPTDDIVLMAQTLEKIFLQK

BRD2 BD2 WT [5] = molecular target: T3, BRD2 BD2 WT (Homo sapiens, UniProt P25440); assay: competitive AlphaLISA; format: binding
T3 sequence (P25440 344-455): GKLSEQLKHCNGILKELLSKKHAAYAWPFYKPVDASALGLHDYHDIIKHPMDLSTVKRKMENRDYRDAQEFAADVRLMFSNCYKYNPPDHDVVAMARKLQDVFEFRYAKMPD

BRD2 BD2 L/V [6] = molecular target: T4, BRD2 BD2 L/V (Homo sapiens, UniProt P25440, L383V); assay: competitive AlphaLISA; format: binding
T4 sequence (P25440 344-455 L383V): as the sequence (P25440 344-455) above, with L40V counted along it

BRD3 BD1 WT [7] = molecular target: T5, BRD3 BD1 WT (Homo sapiens, UniProt Q15059); assay: competitive AlphaLISA; format: binding
T5 sequence (Q15059 24-144): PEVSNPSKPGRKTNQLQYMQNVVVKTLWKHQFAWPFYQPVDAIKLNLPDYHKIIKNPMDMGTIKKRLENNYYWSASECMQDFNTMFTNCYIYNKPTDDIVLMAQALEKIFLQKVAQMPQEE

BRD3 BD1 L/V [8] = molecular target: T6, BRD3 BD1 L/V (Homo sapiens, UniProt Q15059, L70V); assay: competitive AlphaLISA; format: binding
T6 sequence (Q15059 24-144 L70V limits assumed): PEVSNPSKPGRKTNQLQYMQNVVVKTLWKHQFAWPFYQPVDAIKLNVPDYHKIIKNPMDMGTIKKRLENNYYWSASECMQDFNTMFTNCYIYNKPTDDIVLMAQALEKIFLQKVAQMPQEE

BRD3 BD2 WT = BRD3 BD2 WT (Homo sapiens, UniProt Q15059); assay: competitive AlphaLISA; format: binding
BRD3 BD2 WT, sequence (Q15059 306-416): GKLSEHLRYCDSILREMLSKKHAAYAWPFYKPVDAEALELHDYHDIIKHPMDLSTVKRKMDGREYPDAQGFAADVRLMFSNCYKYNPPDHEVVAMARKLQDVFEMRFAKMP

BRD3 BD2 L/V [9] = molecular target: T7, BRD3 BD2 L/V (Homo sapiens, UniProt Q15059, L345V); assay: competitive AlphaLISA; format: binding
T7 sequence (Q15059 306-416 L345V limits assumed): as the sequence (Q15059 306-416) above, with L40V counted along it

BRD4 BD1 WT [10] = molecular target: T8, BRD4 BD1 WT (Homo sapiens, UniProt O60885); assay: competitive AlphaLISA; format: binding
BRD4 BD1 L/V [11] = molecular target: T9, BRD4 BD1 L/V (Homo sapiens, UniProt O60885, L94V); assay: competitive AlphaLISA; format: binding
BRD4 BD2 WT [12] = molecular target: T10, BRD4 BD2 WT (Homo sapiens, UniProt O60885); assay: competitive AlphaLISA; format: binding
BRD4 BD2 L/V [13] = molecular target: T11, BRD4 BD2 L/V (Homo sapiens, UniProt O60885, L387V); assay: competitive AlphaLISA; format: binding
BRDT BD1 WT = BRDT BD1 WT (Homo sapiens, UniProt Q58F21); assay: competitive AlphaLISA; format: binding
BRDT BD1 L/V = BRDT BD1 L/V (Homo sapiens, UniProt Q58F21, L63V); assay: competitive AlphaLISA; format: binding
BRDT BD2 WT = BRDT BD2 WT (Homo sapiens, UniProt Q58F21); assay: competitive AlphaLISA; format: binding
BRD2 BD1 WT [14] = molecular target: T1, BRD2 BD1 WT; assay: ITC; format: binding
BRD2 BD1 L/V [15] = molecular target: T2, BRD2 BD1 L/V; assay: ITC; format: binding
BRD2 BD2 WT [16] = molecular target: T3, BRD2 BD2 WT; assay: ITC; format: binding
BRD2 BD2 L/V [17] = molecular target: T4, BRD2 BD2 L/V; assay: ITC; format: binding
BRD3 BD1 WT [18] = molecular target: T5, BRD3 BD1 WT; assay: ITC; format: binding
BRD3 BD1 L/V [19] = molecular target: T6, BRD3 BD1 L/V; assay: ITC; format: binding
BRD3 BD2 L/V [20] = molecular target: T7, BRD3 BD2 L/V; assay: ITC; format: binding
BRD4 BD1 WT [21] = molecular target: T8, BRD4 BD1 WT; assay: ITC; format: binding
BRD4 BD1 L/V [22] = molecular target: T9, BRD4 BD1 L/V; assay: ITC; format: binding; settings: for Kd: Kd BRD4 BD1 L/V
BRD4 BD2 WT [23] = molecular target: T10, BRD4 BD2 WT; assay: ITC; format: binding
BRD4 BD2 L/V [24] = molecular target: T11, BRD4 BD2 L/V; assay: ITC; format: binding
[25] = system: L/V somatic BET bromodomains; assay: ITC; settings: L/V minus WT
in vitro = settings: PAMPA, pH 7.4
Plasma Half-life = settings: BALB/c, mouse, pH 7.4
Intrinsic Clearance = settings: mouse liver microsomes
BRDT BD2 L/V = BRDT BD2 L/V (Homo sapiens, UniProt Q58F21, L306V); assay: competitive AlphaLISA; format: binding
[26] = AlphaLISA pIC50 Value BRD4 BD1 WT
[27] = AlphaLISA pIC50 Value BRD4 BD1 L/V

SMILES | AlphaLISA pIC50 ± SD WT [1] | AlphaLISA pIC50 ± SD Δ [2] | IC50 (BRD2 BD1 WT [3]) [µM] | IC50 (BRD2 BD1 L/V [4]) [µM] | IC50 (BRD2 BD2 WT [5]) [µM] | IC50 (BRD2 BD2 L/V [6]) [µM] | IC50 (BRD3 BD1 WT [7]) [µM] | IC50 (BRD3 BD1 L/V [8]) [µM] | IC50 (BRD3 BD2 WT) [µM] | IC50 (BRD3 BD2 L/V [9]) [µM] | IC50 (BRD4 BD1 WT [10]; [26]) [µM] | IC50 (BRD4 BD1 L/V [11]; [27]) [µM] | IC50 (BRD4 BD2 WT [12]) [µM] | IC50 (BRD4 BD2 L/V [13]) [µM] | IC50 (BRDT BD1 WT) [µM] | IC50 (BRDT BD1 L/V) [µM] | IC50 (BRDT BD2 WT) [µM] | Papp (in vitro) [×10⁻⁶ cm/s] | half-life at 50 µM (Plasma Half-life) [h] | CL int (Intrinsic Clearance) [ml min^–1 g^–1] | also measured
COC(=O)[C@H](C)[C@@H]1N=C(c2ccc(Cl)cc2)c2ccc(OC)cc2-n2c(C)nnc21 (racemic) [Compound 7] | 5.4 ± 0.2 | 1.4 ± 0.2 | 3.16 | 0.2 | 7.94 | 0.316 | 1.58 | 0.1 | 5.01 | 0.1 | 3.16 | 0.2 | 6.31 | 0.2 | 5.01 | 0.251 | 7.94 | 15.8 | > 3 | <0.5 | IC50 (BRD4 BD1 WT [10]; pIC50 BRD4 BD1 WT, separated enantiomers test, total compound concentration): 12.6 µM; ΔpIC50 BRD4 BD1 (BRD4 BD1 L/V [11]; L/V minus WT, total compound concentration): 1.4; IC50 (BRD4 BD1 L/V [11]; pIC50 BRD4 BD1 L/V, separated enantiomers test, total compound concentration): 0.631 µM; Kd (BRD2 BD1 WT [14]): 32 µM; Kd (BRD2 BD1 L/V [15]): 0.31 µM; Kd (BRD2 BD2 WT [16]): > 60 µM; Kd (BRD2 BD2 L/V [17]): 0.33 µM; Kd (BRD3 BD1 WT [18]): 12 µM; Kd (BRD3 BD1 L/V [19]): 0.14 µM; Kd (BRD3 BD2 L/V [20]): 0.23 µM; Kd (BRD4 BD1 WT [21]): 28 µM; ΔH BRD4 BD1 L/V (BRD4 BD1 L/V [22]; ITC, total compound concentration): -4.2 ± 0.0 kcal/mol; Kd (BRD4 BD1 L/V [22]; ITC of separated enantiomers and racemates, total compound concentration): 0.5 ± 0.05 µM; Kd (BRD4 BD1 L/V [22]; ITC, 30°C): 0.14 µM; Kd (BRD4 BD2 WT [23]): 33 µM; Kd (BRD4 BD2 L/V [24]): 0.98 µM; ITC pKd ± SD Δ [25]: 2.0 ± 0.4
C=CC[C@@H](C(=O)OC)[C@@H]1N=C(c2ccc(Cl)cc2)c2ccc(OC)cc2-n2c(C)nnc21 (relative stereo) [Compound 9] | 4.4 ± 0.1 | 1.3 ± 0.2 | 50.1 | 3.98 | 39.8 | 1.26 | 31.6 | 1.58 | 50.1 | 1 | 39.8 | 3.16 | 63.1 | 3.16 | 63.1 | 6.31 | 50.1 | 13.6 | > 3 | 9.4 | AlphaLISA pIC50 ± SD L/V [2]: 5.7 ± 0.2; IC50 (BRDT BD2 L/V): 5.01 µM
C=CC[C@@H](C(=O)NCC)[C@@H]1N=C(c2ccc(Cl)cc2)c2cc(OC)ccc2-n2c(C)nnc21 (relative stereo) [Compound 18] | 4.3 ± 0.1 | 1.5 ± 0.1 | 50.1 | 2.51 | 50.1 | 1 | 31.6 | 0.794 | 50.1 | 1.26 | 39.8 | 1.26 | 63.1 | 2 | 79.4 | 5.01 | 79.4 | 5.2 | > 3 | 2.6 | AlphaLISA pIC50 ± SD L/V [2]: 5.9 ± 0.2; IC50 (BRDT BD2 L/V): 5.01 µM
